In paper PMC6089501 (Journal of Medicinal Chemistry, 2018):
Converted amounts (≈) assume the structure as drawn. Like-named read-outs stand apart in the source and are kept apart here.

Tests used:
M. tuberculosis H37Rv = experiment: microbe, parasite or virus in culture; type: cell-based, Mycobacterium tuberculosis; settings: for MIC90 / IC90 / MIC: Mycobacterium tuberculosis, H37RV; for MIC90: read-out: MIC (MIC90); for IC90: read-out: TB-IC90_OD GEOM_MEAN
[1] = for Cli mouse: female, CD1, mouse, pH 7.4
[2] = system: Madin Darby Canine Kidney (MDCK)
Vero cells [3] = experiment: cells; settings: Chlorocebus sabaeus, read-out: VERO IC50
Description: (§1) Compounds were solubilized in DMSO and assayed as a 10-point 3-fold serial dilution. Compounds were incubated with cells for 2 days at 37 °C, 5% CO2. CellTiter-Glo Reagent (Promega) was added and relative luminescent units (RLU) measured.

physchem [4] = experiment: physchem
in vitro = settings: dog, MDCK-MDR1
physchem [5] = experiment: physchem; remark: listed apart in the source
Description: Samples are stirred for 20 h and filtered through a 0.7 μm GF filter. The filtrate was analyzed by HPLC assay for concentration against DMSO standard curve.[40]

physchem [6] = settings: pH 2.4
Vero cells [7] = settings: read-out: VERO IC50
Description: as §1

physchem [8] = settings: aqueous with cosolvent or surfactant or cyclodextrin, kinetic from dmso stock
in vivo = settings: female, C57 Black, mouse, po, 10 mg/kg
Description: Test compound was dosed as a bolus solution intravenously at 3 mg of free base/kilogram (dose volume 5 mL/kg; dose vehicle Saline or 10% DMSO; 40% PEG400; 50% saline) to female C57 Black (n = 3) or dosed orally by gavage as a solution at 10 mg of free base/kilogram (dose volume 10 mL/kg; dose vehicle 10% DMSO; 40% PEG400; 50% distilled water) to female C57 Black (n = 3/dose level). Blood samples were taken from each mouse tail vein at predetermined time points postdose, mixed with two volumes of distilled water, and stored frozen until UPLC/MS/MS analysis. Pharmacokinetic parameters were derived from the blood concentration time curve using PK Solutions software v 2.0 (Summit Research Services, USA).

Structure (SMILES) | MIC90 (M. tuberculosis H37Rv) | IC90 (M. tuberculosis H37Rv) | Cli mouse [1] | CL mouse MEAN ([1]; mouse, microsomes) | IC50 (Vero cells [3]) | chromatographic logD (physchem [4]) | IC50 (Vero cells [7]) | solubility kinetic (physchem [8]) | other results
NC(=O)c1sc(CN2CCOCC2)cc1OCCc1ccccc1 [Compound 18, 5-(Morpholinomethyl)-3-(2-phenylethoxy)thiophene-2-carboxamide] | > 20 µM | > 20 µM | 3 mL.min^–1.g^–1 | 3.219 mL/min/g | > 100 µM | 1.71 |  |  | antitubercular whole cell activity (in words) (M. tuberculosis H37Rv): not active; P-glycoprotein (P-gp) efflux (in words) ([2]; MDCK-MDR1): no likely P-glycoprotein (P-gp) efflux issues; permeability (in words) ([2]; MDCK-MDR1): good permeability; P-gp Efflux B→ A/A → B ([2]; dog, MDCK): 0.8; Papp A→B (in vitro): 62 ×10⁻⁶ cm/s; Papp B→A (in vitro): 53 ×10⁻⁶ cm/s; solubility (physchem [5]; pH 2): 700 µg/mL (≈ 2020 µM); solubility (physchem [5]; pH 7.4): 300 µg/mL (≈ 866 µM); solubility (physchem [6]): 1700 µg/mL (≈ 4910 µM)
c1ccc(CCOc2csc(N3CCOCC3)c2)cc1 [Compound 19, 4-[4-(2-Phenylethoxy)-2-thienyl]morpholine] | > 20 µM | > 20 µM | 37 mL.min^–1.g^–1 | 37.17 mL/min/g | 68 µM | 1.96 | 61.7 µM | 174 µM (≈ 50.2 µg/mL) | 
CC(=O)c1sc(N2CCOCC2)cc1OCCc1ccccc1 [Compound 20, 1-[5-Morpholino-3-(2-phenylethoxy)-2-thienyl]ethanone] | 0.42 µM (≈ 0.139 µg/mL) | 0.424 µM | 41 mL.min^–1.g^–1 | 41.42 mL/min/g | 84 µM | 2.78 | 82.2 µM |  | solubility (physchem [5]; pH 2): 600 µg/mL (≈ 1810 µM); solubility (physchem [5]; pH 7.4): 30 µg/mL (≈ 90.5 µM); solubility (physchem [6]): 400 µg/mL (≈ 1210 µM)
CNC(=O)c1sc(N2CCOCC2)cc1OCCc1ccccc1 [Compound 21, N-Methyl-5-morpholino-3-(2-phenylethoxy)thiophene-2-carboxamide] | 0.12 µM (≈ 0.0416 µg/mL) | 0.133 µM | 36 mL.min^–1.g^–1 | 35.49 mL/min/g | 91 µM | 2.44 | 72.4 µM |  | MIC (M. tuberculosis H37Rv; read-out: MIC WT): 0.08 µM
O=C(NCC(F)(F)F)c1sc(N2CCOCC2)cc1OCCc1ccccc1 [Compound 23, 5-Morpholino-3-phenethoxy-N-(2,2,2-trifluoroethyl)thiophene-2-carboxamide] | 3.4 µM (≈ 1.41 µg/mL) | 3.32 µM | 30 mL.min^–1.g^–1 | 30.19 mL/min/g | > 100 µM | 3.11 |  | 67 µM (≈ 27.8 µg/mL) | 
O=C(NC1CCC1)c1sc(N2CCOCC2)cc1OCCc1ccccc1 [Compound 24, N-Cyclobutyl-5-morpholino-3-phenethoxythiophene-2-carboxamide] | > 20 µM | > 20 µM | 0.5 mL.min^–1.g^–1 | 0.5 mL/min/g | 24 µM | 3.21 | 24 µM | 175 µM (≈ 67.6 µg/mL) | 
CON(C)C(=O)c1sc(N2CCOCC2)cc1OCCc1ccccc1 [Compound 25, N-Methoxy-N-methyl-5-morpholino-3-phenethoxythiophene-2-carboxamide] | 1.8 µM (≈ 0.678 µg/mL) | 1.7 µM | 0.5 mL.min^–1.g^–1 | 0.5 mL/min/g |  |  |  |  | MIC (M. tuberculosis H37Rv; read-out: H37Rv MIC): 0.64 µg/mL; in vitro mouse Clint ([1]; mouse, microsomes): <0.5 mL/min/g; AUC (in vivo): 86.7 ng·h/mL
CCOC(=O)NC(=O)c1sc(N2CCOCC2)cc1OCCc1ccccc1 [Compound 26, Ethyl N-[5-Morpholino-3-(2-phenylethoxy)thiophene-2-carbonyl]carbamate] | > 20 µM | > 20 µM | 1 mL.min^–1.g^–1 | 0.9584 mL/min/g | > 100 µM | 2.73 |  | 65.8 µM (≈ 26.6 µg/mL) | antitubercular whole cell activity (in words) (M. tuberculosis H37Rv): inactive
NC(=O)c1sc(N2CCCCC2)cc1OCCc1ccccc1 [Compound 28, 3-(2-Phenylethoxy)-5-(1-piperidyl)thiophene-2-carboxamide] | 8.9 µM (≈ 2.94 µg/mL) | 11 µM | 42 mL.min^–1.g^–1 | 42.23 mL/min/g | > 100 µM | 3.04 |  | 78.5 µM (≈ 25.9 µg/mL) | 
NC(=O)c1sc(N2CCOCC2=O)cc1OCCc1ccccc1 [Compound 29, 5-(3-Oxomorpholino)-3-phenethoxythiophene-2-carboxamide] | 15 µM (≈ 5.2 µg/mL) | 10 µM | 7 mL.min^–1.g^–1 | 6.629 mL/min/g | > 100 µM |  |  | 79 µM (≈ 27.4 µg/mL) | drop in potency / activity (M. tuberculosis H37Rv): > 10 fold
